In ChEMBL document CHEMBL1147999, “Caffeoylglycolic and caffeoylamino acid derivatives, halfmers of L-chicoric acid, as new HIV-1 integrase inhibitors” (Eur J Med Chem, 2007):
Active and inactive are the calls of the source. The rule behind the calls is not given here.

Tests used:
[1] = target: Human immunodeficiency virus type 1 integrase (Human immunodeficiency virus 1, UniProt Q7ZJM1); assay: Inhibition of recombinant HIV1 integrase expressed in Escherichia coli
[2] = system: Human immunodeficiency virus 1; assay: Antiviral activity against HIV1 3B in MT4 cells at 200 uM; format: functional, organism-based
[3] = Human immunodeficiency virus 1, 3B

Sequence of Human immunodeficiency virus type 1 integrase (Q7ZJM1 whole entry): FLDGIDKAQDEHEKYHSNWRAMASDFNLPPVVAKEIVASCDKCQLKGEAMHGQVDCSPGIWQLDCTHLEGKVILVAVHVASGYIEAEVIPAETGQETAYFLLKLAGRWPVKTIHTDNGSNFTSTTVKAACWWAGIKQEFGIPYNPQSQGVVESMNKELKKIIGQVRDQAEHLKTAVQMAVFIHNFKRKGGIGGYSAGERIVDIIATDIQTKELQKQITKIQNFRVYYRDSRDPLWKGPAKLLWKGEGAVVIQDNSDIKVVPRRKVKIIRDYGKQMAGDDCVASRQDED

Compound	IC50 [1]	also measured
COc1ccc(/C=C/C(=O)OCC(=O)O)cc1OC	> 300 µM	–
CC(C)CC(NC(=O)/C=C/c1ccc(O)c(O)c1)C(=O)O (centres undefined)	130 µM	–
O=C(/C=C/c1ccc(O)c(O)c1)NC(Cc1ccc(O)cc1)C(=O)O (centres undefined)	129 µM	–
O=C(O)COC(=O)/C=C/c1ccc(O)c(O)c1	10.5 µM	–
O=C(/C=C/c1ccc(O)c(O)c1)NC(Cc1ccccc1)C(=O)O (centres undefined)	95 µM	–
CC(NC(=O)/C=C/c1ccc(O)c(O)c1)C(=O)O (centres undefined)	148 µM	–
O=C(/C=C/c1ccc(O)c(O)c1)O[C@H](C(=O)O)[C@@H](OC(=O)/C=C/c1ccc(O)c(O)c1)C(=O)O	–	CC50 [2, 3]: > 42.2 µM; EC50 [2, 3]: 7.5 µM
CC(OC(=O)/C=C/c1ccc(O)c(O)c1)C(=O)O (centres undefined)	128 µM	Activity [2]: inactive
COc1cc(/C=C/C(=O)OCC(=O)O)ccc1O	> 300 µM	–
O=C(/C=C/c1ccc(O)c(O)c1)NC(Cc1ccc(O)c(O)c1)C(=O)O (centres undefined)	12 µM	Activity [2]: inactive
O=C(O)CNC(=O)/C=C/c1ccc(O)c(O)c1	172 µM	–
